Data published in article PMC6321601 (Molecules, 2018).

Key:
[1] = test system: HepG-2 human hepatocellular carcinoma cells; test: MTT assay, proliferation of HepG-2 cells; format: cell-based; settings: Homo sapiens, HepG2, 72 h incubation, mean of three independent experiments
Protocol: (§1) HepG-2 human hepatocellular carcinoma cells and L-O2 human normal liver cells were maintained in DMEM culture medium supplemented with 10% FBS at 37 °C under a humidified atmosphere with 5% CO2.
(§2) HepG-2 and L-O2 cells in logarithmic growth phase were seeded into a 96-well plate at 5 × 10^3/well/200 µL. After 12 h, compounds at different concentrations were added and incubated for 72 h at 37 °C, 5% CO2. Then, 20 µL MTT (5 mg/mL) was added into each well and incubated for 4 h. The supernatant was discarded, and the precipitate was dissolved with DMSO. The absorbance of the optical density (OD) at 570 nm was detected using a microplate reader and the IC50 was calculated with GraphPad Prism 5.

[2] = test system: L-O2 human normal liver cells; test: MTT assay, toxicity against L-O2 normal cells; format: cell-based; settings: Homo sapiens, 72 h incubation, mean of three independent experiments
Protocol: as §1, §2

SMILES	IC50 [1] [nM]	IC50 [2] [nM]
COc1cccc2c1C(=O)c1c(O)c3c(c(O)c1C2=O)C[C@@](O)(C(=O)CO)C[C@@H]3O[C@H]1C[C@H](N)[C@H](O)[C@H](C)O1 [ADR, adriamycin, reference compound]	300 ± 50	41 ± 13
CCC(=O)O[C@@H]1C[C@@]2(C)C3CC=C4C(C[C@H](O)C(=O)C4(C)C)[C@]3(C)C(=O)C[C@]2(C)C1[C@@](C)(O)C(=O)/C=C/C(C)(C)OC(C)=O (stereo partly drawn) [Compound 3a, (2S,9R,13R,14S,16R)-17-((R,E)-6-Acetoxy-2-hydroxy-6-methyl-3-oxohept-4-en-2-yl)-2-hydroxy-4,4,9,13,14-pentamethyl-3,11-dioxo-2,3,4,7,8,9,10,11,12,13,14,15,16,17-tetradecahydro-1H-cyclopenta[a]phenanthren-16-yl propionate]	1010 ± 40	1020 ± 580
CC(=O)OC(C)(C)/C=C/C(=O)[C@](C)(O)C1[C@H](OC(=O)C2CCC2)C[C@@]2(C)C3CC=C4C(CC(O)C(=O)C4(C)C)[C@]3(C)C(=O)C[C@]12C (stereo partly drawn) [Compound 3b, (9R,13R,14S,16R)-17-((R,E)-6-Acetoxy-2-hydroxy-6-methyl-3-oxohept-4-en-2-yl)-2-hydroxy-4,4,9,13,14-pentamethyl-3,11-dioxo-2,3,4,7,8,9,10,11,12,13,14,15,16,17-tetradecahydro-1H-cyclopenta[a]phenanthren-16-yl cyclobutanecarboxylate]	540 ± 40	520 ± 80
CC(=O)OC(C)(C)/C=C/C(=O)[C@](C)(O)C1[C@H](OC(=O)C2CCCC2)C[C@@]2(C)C3CC=C4C(C[C@H](O)C(=O)C4(C)C)[C@]3(C)C(=O)C[C@]12C (stereo partly drawn) [Compound 3c, (2S,9R,13R,14S,16R)-17-((R,E)-6-Acetoxy-2-hydroxy-6-methyl-3-oxohept-4-en-2-yl)-2-hydroxy-4,4,9,13,14-pentamethyl-3,11-dioxo-2,3,4,7,8,9,10,11,12,13,14,15,16,17-tetradecahydro-1H-cyclopenta[a]phenanthren-16-yl cyclopentanecarboxylate]	2450 ± 1750	2370 ± 90
CC(=O)OC(C)(C)/C=C/C(=O)[C@](C)(O)C1[C@H](OC(=O)CCCCNC(=O)OC(C)(C)C)C[C@@]2(C)C3CC=C4C(C[C@H](O)C(=O)C4(C)C)[C@]3(C)C(=O)C[C@]12C (stereo partly drawn) [Compound 3d, (2S,9R,13R,14S,16R)-17-((R,E)-6-Acetoxy-2-hydroxy-6-methyl-3-oxohept-4-en-2-yl)-2-hydroxy-4,4,9,13,14-pentamethyl-3,11-dioxo-2,3,4,7,8,9,10,11,12,13,14,15,16,17-tetradecahydro-1H-cyclopenta[a]phenanthren-16-yl 5-((tert-butoxycarbonyl)amino)pentanoate]	4890 ± 920	8010 ± 470
CC(=O)OC(C)(C)/C=C/C(=O)[C@](C)(O)C1[C@H](OC(=O)CCCCN(C)C(=O)OC(C)(C)C)C[C@@]2(C)C3CC=C4C(C[C@H](O)C(=O)C4(C)C)[C@]3(C)C(=O)C[C@]12C (stereo partly drawn) [Compound 3e, (2S,9R,13R,14S,16R)-17-((R,E)-6-Acetoxy-2-hydroxy-6-methyl-3-oxohept-4-en-2-yl)-2-hydroxy-4,4,9,13,14-pentamethyl-3,11-dioxo-2,3,4,7,8,9,10,11,12,13,14,15,16,17-tetradecahydro-1H-cyclopenta[a]phenanthren-16-yl 5-((tert-butoxycarbonyl)(methyl)amino)pentanoate]	9280 ± 370	5500 ± 2480
CC(=O)OC(C)(C)/C=C/C(=O)[C@](C)(O)C1[C@H](OC(=O)CCCN(C)C(=O)OC(C)(C)C)C[C@@]2(C)C3CC=C4C(C[C@H](O)C(=O)C4(C)C)[C@]3(C)C(=O)C[C@]12C (stereo partly drawn) [Compound 3f, (2S,9R,13R,14S,16R)-17-((R,E)-6-Acetoxy-2-hydroxy-6-methyl-3-oxohept-4-en-2-yl)-2-hydroxy-4,4,9,13,14-pentamethyl-3,11-dioxo-2,3,4,7,8,9,10,11,12,13,14,15,16,17-tetradecahydro-1H-cyclopenta[a]phenanthren-16-yl 4-((tert-butoxycarbonyl)(methyl)amino)butanoate]	930 ± 60	410 ± 110
CC(=O)OC(C)(C)/C=C/C(=O)[C@](C)(O)C1[C@H](OC(=O)CCc2ccccc2NC(=O)OC(C)(C)C)C[C@@]2(C)C3CC=C4C(C[C@H](O)C(=O)C4(C)C)[C@]3(C)C(=O)C[C@]12C (stereo partly drawn) [Compound 3g, (2S,9R,13R,14S,16R)-17-((R,E)-6-Acetoxy-2-hydroxy-6-methyl-3-oxohept-4-en-2-yl)-2-hydroxy-4,4,9,13,14-pentamethyl-3,11-dioxo-2,3,4,7,8,9,10,11,12,13,14,15,16,17-tetradecahydro-1H-cyclopenta[a]phenanthren-16-yl 3-(2-((tert-butoxycarbonyl)amino)phenyl)propanoate]	220 ± 110	42 ± 1
CC(=O)OC(C)(C)/C=C/C(=O)[C@](C)(O)C1[C@H](OC(=O)c2ccc(C)cc2)C[C@@]2(C)C3CC=C4C(C[C@H](O)C(=O)C4(C)C)[C@]3(C)C(=O)C[C@]12C (stereo partly drawn) [Compound 3h, (2S,9R,13R,14S,16R)-17-((R,E)-6-Acetoxy-2-hydroxy-6-methyl-3-oxohept-4-en-2-yl)-2-hydroxy-4,4,9,13,14-pentamethyl-3,11-dioxo-2,3,4,7,8,9,10,11,12,13,14,15,16,17-tetradecahydro-1H-cyclopenta[a]phenanthren-16-yl 4-methylbenzoate]	9620 ± 1340	6900 ± 1370
CC(=O)OC(C)(C)/C=C/C(=O)[C@](C)(O)C1[C@H](OC(=O)c2ccc(F)cc2)C[C@@]2(C)C3CC=C4C(C[C@H](O)C(=O)C4(C)C)[C@]3(C)C(=O)C[C@]12C (stereo partly drawn) [Compound 3i, (2S,9R,13R,14S,16R)-17-((R,E)-6-Acetoxy-2-hydroxy-6-methyl-3-oxohept-4-en-2-yl)-2-hydroxy-4,4,9,13,14-pentamethyl-3,11-dioxo-2,3,4,7,8,9,10,11,12,13,14,15,16,17-tetradecahydro-1H-cyclopenta[a]phenanthren-16-yl 4-fluorobenzoate]	7420 ± 400	4420 ± 970
CC(=O)OC(C)(C)/C=C/C(=O)[C@](C)(O)C1[C@H](OC(=O)c2ccc(Cl)cc2)C[C@@]2(C)C3CC=C4C(C[C@H](O)C(=O)C4(C)C)[C@]3(C)C(=O)C[C@]12C (stereo partly drawn) [Compound 3j, (2S,9R,13R,14S,16R)-17-((R,E)-6-Acetoxy-2-hydroxy-6-methyl-3-oxohept-4-en-2-yl)-2-hydroxy-4,4,9,13,14-pentamethyl-3,11-dioxo-2,3,4,7,8,9,10,11,12,13,14,15,16,17-tetradecahydro-1H-cyclopenta[a]phenanthren-16-yl 4-chlorobenzoate]	4670 ± 280	3570 ± 2580
CC(=O)OC(C)(C)/C=C/C(=O)[C@](C)(O)C1[C@H](OC(=O)c2ccc(Br)cc2)C[C@@]2(C)C3CC=C4C(C[C@H](O)C(=O)C4(C)C)[C@]3(C)C(=O)C[C@]12C (stereo partly drawn) [Compound 3k, (2S,9R,13R,14S,16R)-17-((R,E)-6-Acetoxy-2-hydroxy-6-methyl-3-oxohept-4-en-2-yl)-2-hydroxy-4,4,9,13,14-pentamethyl-3,11-dioxo-2,3,4,7,8,9,10,11,12,13,14,15,16,17-tetradecahydro-1H-cyclopenta[a]phenanthren-16-yl 4-bromobenzoate]	2990 ± 2060	1930 ± 320
COc1ccc(C(=O)O[C@@H]2C[C@@]3(C)C4CC=C5C(C[C@H](O)C(=O)C5(C)C)[C@]4(C)C(=O)C[C@]3(C)C2[C@@](C)(O)C(=O)/C=C/C(C)(C)OC(C)=O)cc1 (stereo partly drawn) [Compound 3l, (2S,9R,13R,14S,16R)-17-((R,E)-6-Acetoxy-2-hydroxy-6-methyl-3-oxohept-4-en-2-yl)-2-hydroxy-4,4,9,13,14-pentamethyl-3,11-dioxo-2,3,4,7,8,9,10,11,12,13,14,15,16,17-tetradecahydro-1H-cyclopenta[a]phenanthren-16-yl 4-methoxybenzoate]	3710 ± 1690	2470 ± 470
CC(=O)OC(C)(C)/C=C/C(=O)[C@](C)(O)C1[C@H](OC(=O)c2ccc([N+](=O)[O-])cc2)C[C@@]2(C)C3CC=C4C(C[C@H](O)C(=O)C4(C)C)[C@]3(C)C(=O)C[C@]12C (stereo partly drawn) [Compound 3m, (2S,9R,13R,14S,16R)-17-((R,E)-6-Acetoxy-2-hydroxy-6-methyl-3-oxohept-4-en-2-yl)-2-hydroxy-4,4,9,13,14-pentamethyl-3,11-dioxo-2,3,4,7,8,9,10,11,12,13,14,15,16,17-tetradecahydro-1H-cyclopenta[a]phenanthren-16-yl 4-nitrobenzoate]	920 ± 440	740 ± 150
CC(=O)OC(C)(C)/C=C/C(=O)[C@](C)(O)C1[C@H](OC(=O)c2cccc(F)c2)C[C@@]2(C)C3CC=C4C(C[C@H](O)C(=O)C4(C)C)[C@]3(C)C(=O)C[C@]12C (stereo partly drawn) [Compound 3n, (2S,9R,13R,14S,16R)-17-((R,E)-6-Acetoxy-2-hydroxy-6-methyl-3-oxohept-4-en-2-yl)-2-hydroxy-4,4,9,13,14-pentamethyl-3,11-dioxo-2,3,4,7,8,9,10,11,12,13,14,15,16,17-tetradecahydro-1H-cyclopenta[a]phenanthren-16-yl 3-fluorobenzoate]	4050 ± 1390	2480 ± 520
CC(=O)OC(C)(C)/C=C/C(=O)[C@](C)(O)C1[C@H](OC(=O)C=Cc2ccccc2)C[C@@]2(C)C3CC=C4C(C[C@H](O)C(=O)C4(C)C)[C@]3(C)C(=O)C[C@]12C (stereo partly drawn) [Compound 3o, (2S,9R,13R,14S,16R)-17-((R,E)-6-Acetoxy-2-hydroxy-6-methyl-3-oxohept-4-en-2-yl)-2-hydroxy-4,4,9,13,14-pentamethyl-3,11-dioxo-2,3,4,7,8,9,10,11,12,13,14,15,16,17-tetradecahydro-1H-cyclopenta[a]phenanthren-16-yl cinnamate]	3310 ± 240	9590 ± 2380
